What was measured:
[1] = system: normal NK cells expanded with K562-aAPC; assay: percent inhibition of viability; higher = more inhibition; details: 72 h, IL-2 2.5 ng/mL
Procedure: (§1)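 Drug sensitivity and resistance testing on K562-aAPC-expanded normal NK cells: 5 concentrations (10-fold steps over a 10,000-fold range), 72 h at 37 °C, viability by CellTiter-Glo normalised to DMSO and benzethonium chloride controls; DSS from the fitted curve.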

DERL-7 (IL-2 2.5 ng/mL) [2] = assay: as above; details: 72 h
IMC-1 (IL-2 20 ng/mL) [3] = assay: as above; details: 72 h
KAI3 (IL-2 2.5 ng/mL) [4] = assay: as above; details: 72 h
KHYG-1 (IL-2 2.5 ng/mL) [5] = assay: as above; details: 72 h
NK-92 (IL-2 2.5 ng/mL) [6] = assay: as above; details: 72 h
NK-YS (IL-2 2.5 ng/mL) [7] = assay: as above; details: 72 h
NKL (IL-2 2.5 ng/mL) [8] = assay: as above; details: 72 h
SNK-6 (IL-2 2.5 ng/mL) [9] = assay: as above; details: 72 h
YT (IL-2 2.5 ng/mL) [10] = assay: as above; details: 72 h
[11] = system: normal primary NK cells, pool 1 (3 donors) (IL-2 2.5 ng/mL); assay: as above; details: 72 h
[12] = system: normal primary NK cells, pool 1 (3 donors), resting (IL-2 0 ng/mL); assay: as above; details: 72 h
[13] = system: normal primary NK cells, pool 2 (3 donors) (IL-2 2.5 ng/mL); assay: as above; details: 72 h
[14] = system: normal primary NK cells, pool 3 (3 donors) (IL-2 2.5 ng/mL); assay: as above; details: 72 h
[15] = system: normal NK cells expanded with K562-aAPC; assay: drug sensitivity score (DSS) (DSS units); higher = more sensitive; extreme values may be limits of the assay; details: 72 h; IL-2 2.5 ng/mL
Procedure: as §1

DERL-7 (IL-2 2.5 ng/mL) [16] = assay: as above; details: 72 h
IMC-1 (IL-2 20 ng/mL) [17] = assay: as above; details: 72 h
KAI3 (IL-2 2.5 ng/mL) [18] = assay: as above; details: 72 h
KHYG-1 (IL-2 2.5 ng/mL) [19] = assay: as above; details: 72 h
NK-92 (IL-2 2.5 ng/mL) [20] = assay: as above; details: 72 h
NK-YS (IL-2 2.5 ng/mL) [21] = assay: as above; details: 72 h
NKL (IL-2 2.5 ng/mL) [22] = assay: as above; details: 72 h
SNK-6 (IL-2 2.5 ng/mL) [23] = assay: as above; details: 72 h
YT (IL-2 2.5 ng/mL) [24] = assay: as above; details: 72 h
[25] = system: normal primary NK cells, pool 1 (3 donors) (IL-2 2.5 ng/mL); assay: as above; details: 72 h
[26] = system: normal primary NK cells, pool 1 (3 donors), resting (IL-2 0 ng/mL); assay: as above; details: 72 h
[27] = system: normal primary NK cells, pool 2 (3 donors) (IL-2 2.5 ng/mL); assay: as above; details: 72 h
[28] = system: normal primary NK cells, pool 3 (3 donors) (IL-2 2.5 ng/mL); assay: as above; details: 72 h

O=c1sn(-c2cccc3ccccc23)c(=O)n1Cc1ccccc1 [Tideglusib] (max concentration tested 3000 nM)
percent inhibition of viability ([1]; 0.3 nM): -6.95% | percent inhibition of viability ([1]; 3 nM): -7.17% | percent inhibition of viability ([1]; 30 nM): -3.75% | percent inhibition of viability ([1]; 300 nM): -3.95% | percent inhibition of viability ([1]; 3000 nM): 10.8% | percent inhibition of viability (DERL-7 (IL-2 2.5 ng/mL) [2]; 0.3 nM): 0.33% | percent inhibition of viability (DERL-7 (IL-2 2.5 ng/mL) [2]; 3 nM): 8.56% | percent inhibition of viability (DERL-7 (IL-2 2.5 ng/mL) [2]; 30 nM): 5.78% | percent inhibition of viability (DERL-7 (IL-2 2.5 ng/mL) [2]; 300 nM): 9.73% | percent inhibition of viability (DERL-7 (IL-2 2.5 ng/mL) [2]; 3000 nM): -4.19% | percent inhibition of viability (IMC-1 (IL-2 20 ng/mL) [3]; 0.3 nM): -9.15% | percent inhibition of viability (IMC-1 (IL-2 20 ng/mL) [3]; 3 nM): -4.57% | percent inhibition of viability (IMC-1 (IL-2 20 ng/mL) [3]; 30 nM): -3.56% | percent inhibition of viability (IMC-1 (IL-2 20 ng/mL) [3]; 300 nM): -1.74% | percent inhibition of viability (IMC-1 (IL-2 20 ng/mL) [3]; 3000 nM): 14.2% | percent inhibition of viability (KAI3 (IL-2 2.5 ng/mL) [4]; 0.3 nM): 4.52% | percent inhibition of viability (KAI3 (IL-2 2.5 ng/mL) [4]; 3 nM): 0.51% | percent inhibition of viability (KAI3 (IL-2 2.5 ng/mL) [4]; 30 nM): -8.06% | percent inhibition of viability (KAI3 (IL-2 2.5 ng/mL) [4]; 300 nM): 2.48% | percent inhibition of viability (KAI3 (IL-2 2.5 ng/mL) [4]; 3000 nM): 28.9% | percent inhibition of viability (KHYG-1 (IL-2 2.5 ng/mL) [5]; 0.3 nM): 0.24% | percent inhibition of viability (KHYG-1 (IL-2 2.5 ng/mL) [5]; 3 nM): -8.35% | percent inhibition of viability (KHYG-1 (IL-2 2.5 ng/mL) [5]; 30 nM): -8.09% | percent inhibition of viability (KHYG-1 (IL-2 2.5 ng/mL) [5]; 300 nM): -2.62% | percent inhibition of viability (KHYG-1 (IL-2 2.5 ng/mL) [5]; 3000 nM): 8.61% | percent inhibition of viability (NK-92 (IL-2 2.5 ng/mL) [6]; 0.3 nM): -5% | percent inhibition of viability (NK-92 (IL-2 2.5 ng/mL) [6]; 3 nM): -12.7% | percent inhibition of viability (NK-92 (IL-2 2.5 ng/mL) [6]; 30 nM): -13.7% | percent inhibition of viability (NK-92 (IL-2 2.5 ng/mL) [6]; 300 nM): -11.8% | percent inhibition of viability (NK-92 (IL-2 2.5 ng/mL) [6]; 3000 nM): -1.4% | percent inhibition of viability (NK-YS (IL-2 2.5 ng/mL) [7]; 0.3 nM): -1.28% | percent inhibition of viability (NK-YS (IL-2 2.5 ng/mL) [7]; 3 nM): -6.26% | percent inhibition of viability (NK-YS (IL-2 2.5 ng/mL) [7]; 30 nM): -8.67% | percent inhibition of viability (NK-YS (IL-2 2.5 ng/mL) [7]; 300 nM): -1.58% | percent inhibition of viability (NK-YS (IL-2 2.5 ng/mL) [7]; 3000 nM): 10.1% | percent inhibition of viability (NKL (IL-2 2.5 ng/mL) [8]; 0.3 nM): -0.96% | percent inhibition of viability (NKL (IL-2 2.5 ng/mL) [8]; 3 nM): -13.4% | percent inhibition of viability (NKL (IL-2 2.5 ng/mL) [8]; 30 nM): -11.3% | percent inhibition of viability (NKL (IL-2 2.5 ng/mL) [8]; 300 nM): 4.69% | percent inhibition of viability (NKL (IL-2 2.5 ng/mL) [8]; 3000 nM): 13.7% | percent inhibition of viability (SNK-6 (IL-2 2.5 ng/mL) [9]; 0.3 nM): -1.78% | percent inhibition of viability (SNK-6 (IL-2 2.5 ng/mL) [9]; 3 nM): 4.09% | percent inhibition of viability (SNK-6 (IL-2 2.5 ng/mL) [9]; 30 nM): -8.27% | percent inhibition of viability (SNK-6 (IL-2 2.5 ng/mL) [9]; 300 nM): 7.39% | percent inhibition of viability (SNK-6 (IL-2 2.5 ng/mL) [9]; 3000 nM): 0.93% | percent inhibition of viability (YT (IL-2 2.5 ng/mL) [10]; 0.3 nM): 0.91% | percent inhibition of viability (YT (IL-2 2.5 ng/mL) [10]; 3 nM): -5.07% | percent inhibition of viability (YT (IL-2 2.5 ng/mL) [10]; 30 nM): -4.89% | percent inhibition of viability (YT (IL-2 2.5 ng/mL) [10]; 300 nM): -0.66% | percent inhibition of viability (YT (IL-2 2.5 ng/mL) [10]; 3000 nM): 12.1% | percent inhibition of viability ([11]; 0.3 nM): -1.89% | percent inhibition of viability ([11]; 3 nM): -5.16% | percent inhibition of viability ([11]; 30 nM): 15.6% | percent inhibition of viability ([11]; 300 nM): 9.54% | percent inhibition of viability ([11]; 3000 nM): 6.41% | percent inhibition of viability ([12]; 0.3 nM): 2.26% | percent inhibition of viability ([12]; 3 nM): 8.84% | percent inhibition of viability ([12]; 30 nM): 16.1% | percent inhibition of viability ([12]; 300 nM): 20.2% | percent inhibition of viability ([12]; 3000 nM): 27.7% | percent inhibition of viability ([13]; 0.3 nM): -9.87% | percent inhibition of viability ([13]; 3 nM): -9.74% | percent inhibition of viability ([13]; 30 nM): -4.05% | percent inhibition of viability ([13]; 300 nM): -1.59% | percent inhibition of viability ([13]; 3000 nM): 6.8% | percent inhibition of viability ([14]; 0.3 nM): -6.37% | percent inhibition of viability ([14]; 3 nM): -9.25% | percent inhibition of viability ([14]; 30 nM): 6.54% | percent inhibition of viability ([14]; 300 nM): 6.09% | percent inhibition of viability ([14]; 3000 nM): 5.7% | drug sensitivity score [15]: 0 | drug sensitivity score (DERL-7 (IL-2 2.5 ng/mL) [16]): 0 | drug sensitivity score (IMC-1 (IL-2 20 ng/mL) [17]): 0.12 | drug sensitivity score (KAI3 (IL-2 2.5 ng/mL) [18]): 1.59 | drug sensitivity score (KHYG-1 (IL-2 2.5 ng/mL) [19]): 0 | drug sensitivity score (NK-92 (IL-2 2.5 ng/mL) [20]): 0 | drug sensitivity score (NK-YS (IL-2 2.5 ng/mL) [21]): 0 | drug sensitivity score (NKL (IL-2 2.5 ng/mL) [22]): 0.46 | drug sensitivity score (SNK-6 (IL-2 2.5 ng/mL) [23]): 0 | drug sensitivity score (YT (IL-2 2.5 ng/mL) [24]): 0.04 | drug sensitivity score [25]: 0.12 | drug sensitivity score [26]: 4.87 | drug sensitivity score [27]: 0 | drug sensitivity score [28]: 0

From the supplement of paper PMC5908809
